Test results published in patent publication US20120115944A1, “USE OF CARNITINE AND DIHYDROQUERCITIN TO POSITIVELY INFLUENCE THE NATURAL PIGMENTATION PROCESS” (Henkel AG & Co., KGaA, priority 2009, published 2012).

What was measured:
Format in all cases: cell-based
[1] = system: organotypic cell cultures made up of three-dimensionally cultivated dermal papilla cells; assay: ATP content in hair follicle cell cultures (ATPlite-M assay); conditions: 24 hours, untreated = 100
From the text: (§1) L-Carnitine and L-carnitine tartrate were investigated with regard to their effects on ATP synthesis the excretion of the growth factors HGF (hepatocyte growth factors) and KGF (keratinocyte growth factor). ATP (adenosine triphosphate) is the universal storage form for chemical energy in cells. Release of the phosphate groups yields ADP and Pi (inorganic phosphate). This reaction is highly exergonic, i.e. energy is released. ATP is produced in the cellular oxidative breakdown of fats, carbohydrates, and proteins. It serves as an energy supply for biochemical syntheses (including melanin synthesis), for transport operations (active transport), and for mechanical work. These processes are endergonic, i.e. they proceed only when energy is delivered. HGF and KGF are important growth factors with which the dermal papilla controls hair growth and the hair cycle, to which pigment production in the hair follicle is linked in particular fashion. Melanin formation takes place exclusively in the anagen phase of the hair cycle. In addition, a variety of publications have discussed the effect of HGF on DNA synthesis, on growth, and on the differentiation of melanocytes.
The ATP determination was performed using the ATPlite™-M assay (Packard). The test principle of this assay is based on the fact that the luciferase of Photinus pyralis catalyzes a reaction in which D-luciferin is converted into oxyluciferin in the presence of ATP. This reaction causes the emission of green light, which can be measured with a luminometer. The emitted bioluminescent light is proportional to the quantity of ATP present.
The ATP activity determination was performed in organotypic cell cultures made up of three-dimensionally cultivated dermal papilla cells. The treatment with carnitine and carnitine tartrate occurred over 24 hours, against an untreated control.

[2] = system: HGF; assay: Relative excretion of HGF (ELISA) in organotypic hair follicle cell cultures; conditions: 72 hours, untreated = 100
From the text: as §1, with “In addition, a variety of publications have discussed the effect of HGF on DNA synthesis, on growth, and on the differentiation of melanocytes.” left out
(§2) The excretion of HGF and KGF can be quantified with the aid of a commercially obtainable ELISA kit. For this, organotypic hair follicle cell cultures made up of dermal papilla cells, hair follicle melanocytes, and outer root sheath keratinocytes are incubated for 72 hours with carnitine tartrate, and the concentration of HGF and KGF in the medium is determined.

[3] = system: KGF; assay: Relative excretion of KGF (ELISA) in organotypic hair follicle cell cultures; conditions: 72 hours, untreated = 100
From the text: as §1, with “In addition, a variety of publications have discussed the effect of HGF on DNA synthesis, on growth, and on the differentiation of melanocytes.” left out
as §2

[4] = system: ckit; assay: Differential gene expression by quantitative RT-PCR in organotypic hair follicle cell cultures: ckit; conditions: 48 h incubation, untreated control = 1
From the text: Ligands participating in melanogenesis, such as SCF or alpha-MSH (melanocyte stimulating hormone alpha), bind to a variety of receptors by means of which the corresponding signal is delivered into the interior of the cell. The receptor for SCF is ckit, the receptor for alpha-MSH is MCR-1 (melanocortin receptor 1). Those substances that bring about a change in the expression of MCR-1 and/or ckit can influence melanogenesis. In the case of an induction (upregulation or stimulation) of the gene expression of the corresponding receptors, a stimulation of melanogenesis is to be assumed. A determination of the extent of the change in gene expression after an application of such substances onto suitable cells/cell systems/tissue cultures can provide information regarding the efficacy of the active substance. Differential gene expression was determined by means of quantitative RT-PCR. After three-dimensional organotypic hair follicle cell cultures from dermal papilla cells had been produced on microcarriers, the latter were incubated for 48 h with dihydroquercetin in two different concentrations. In order to carry out the PCR, firstly the RNA was isolated from the organotypic cell cultures using the RNeasy Mini Kit of the Qiagen company, and it was transcribed into cDNA by reverse transcription. In the context of the subsequent PCR reaction, which was carried out using gene-specific primers for the respective genes and which serves to amplify the desired gene segments, formation of the PCR products was detected online by way of a fluorescence signal, which is proportional to the quantity of PCR product formed. The stronger the expression of a specific gene, the greater the quantity of PCR product formed, and the higher the fluorescence signal. The quantify the gene expression, the untreated control was set to equal 1, and expression of the genes to be determined was referred to it (X-times expression). […]

[5] = system: MCR1 (melanocortin receptor 1); assay: Differential gene expression by quantitative RT-PCR in organotypic hair follicle cell cultures: MCR1; conditions: 48 h incubation, untreated control = 1
From the text: Ligands participating in melanogenesis, such as SCF or alpha-MSH (melanocyte stimulating hormone alpha), bind to a variety of receptors by means of which the corresponding signal is delivered into the interior of the cell. The receptor for SCF is ckit, the receptor for alpha-MSH is MCR-1 (melanocortin receptor 1). Those substances that bring about a change in the expression of MCR-1 and/or ckit can influence melanogenesis. In the case of an induction (upregulation or stimulation) of the gene expression of the corresponding receptors, a stimulation of melanogenesis is to be assumed. A determination of the extent of the change in gene expression after an application of such substances onto suitable cells/cell systems/tissue cultures can provide information regarding the efficacy of the active substance. Differential gene expression was determined by means of quantitative RT-PCR. After three-dimensional organotypic hair follicle cell cultures from dermal papilla cells had been produced on microcarriers, the latter were incubated for 48 h with dihydroquercetin in two different concentrations. In order to carry out the PCR, firstly the RNA was isolated from the organotypic cell cultures using the RNeasy Mini Kit of the Qiagen company, and it was transcribed into cDNA by reverse transcription. In the context of the subsequent PCR reaction, which was carried out using gene-specific primers for the respective genes and which serves to amplify the desired gene segments, formation of the PCR products was detected online by way of a fluorescence signal, which is proportional to the quantity of PCR product formed. The stronger the expression of a specific gene, the greater the quantity of PCR product formed, and the higher the fluorescence signal. The quantify the gene expression, the untreated control was set to equal 1, and expression of the genes to be determined was referred to it (X-times expression). […] Values that are greater than or equal to 1.5 times the expression, or less than or equal to 0.7 times the expression, of the untreated control are classified as tending toward differential expression.

[6] = system: gp100; assay: Differential gene expression by quantitative RT-PCR in organotypic hair follicle cell cultures: gp100; conditions: 48 h incubation, untreated control = 1
From the text: Gp100 is a protein that occurs in the membrane of melanosomes and stabilizes it. Because more melanin is produced in the cells after the application of substances that positively influence melanogenesis, an increase also occurs in the number of melanosomes required for transport. A substance that induces the gene expression of gp100 is therefore a pigmentation-stimulating active substance. A determination of the extent of the change in gene expression after an application of such substances onto suitable cells/cell systems/tissue cultures can provide information regarding the efficacy of the active substance. Differential gene expression was determined by means of quantitative RT-PCR. After three-dimensional organotypic hair follicle cell cultures from dermal papilla cells had been produced on microcarriers, the latter were incubated for 48 h with dihydroquercetin in two different concentrations. In order to carry out the PCR, firstly the RNA was isolated from the organotypic cell cultures using the RNeasy Mini Kit of the Qiagen company, and it was transcribed into cDNA by reverse transcription. In the context of the subsequent PCR reaction, which was carried out using gene-specific primers for the respective genes and which serves to amplify the desired gene segments, formation of the PCR products was detected online by way of a fluorescence signal, which is proportional to the quantity of PCR product formed. The stronger the expression of a specific gene, the greater the quantity of PCR product formed, and the higher the fluorescence signal. The quantify the gene expression, the untreated control was set to equal 1, and expression of the genes to be determined was referred to it (X-times expression). […] Values that are greater than or equal to 1.5 times the expression, or less than or equal to 0.7 times the expression, of the untreated control are classified as tending toward differential expression.

[7] = system: three-dimensional organotypic hair follicle cell cultures made up of dermal papilla cells, hair follicle melanocytes, and outer root sheath keratinocytes; assay: Melanin content in hair follicle equivalents
From the text: Melanin is a dye that is produced and stored in the melanosomes of melanocytes. Melanin gives hair its actual color, the color being produced by a mixture of two types of melanin, eumelanin and pheomelanin. Melanogenesis is a complicated synthesis process regulated in many ways. Firstly, tyrosine is converted by the enzyme tyrosinase into L-dihydroxyphenylalanine (L-DOPA), and then via multiple intermediate steps into the various melanin pigments. An active substance that positively influences melanogenesis and results in an elevated melanin content in the hair follicle melanocytes is particularly suitable for influencing the natural pigmentation process of skin and/or skin appendages, preventing hair graying, and/or stimulating pigmentation.
To investigate the melanin content, three-dimensional organotypic hair follicle cell cultures made up of dermal papilla cells, hair follicle melanocytes, and outer root sheath keratinocytes were treated for 7 days with dihydroquercetin (10 μM and 100 μM). Untreated cell cultures served as controls. After 4 and 7 days the hair follicle equivalents were homogenized and the melanin was extracted for 45 minutes using NaOH (1M)+10% DMSO at 100° C. Aliquots of the samples were then transferred into a 96-well plate, and extinction at 492 nm was measured. The increase in melanin content from day 0 to day 7 was evaluated by referring all the values to the untreated control at day 7 (=100%).

[8] = 100 μM, listed as dihydroquercetin

C[N+](C)(C)C[C@H](O)CC(=O)[O-].O=C(O)C(O)C(O)C(=O)O [Carnitine tartrate, L-carnitine tartrate]
ATP (%) M ([1]; 0.01%, listed as carnitine tartrate, tartrate): increase the ATP content in the treated cultures significantly | ATP (%) M ([1]; 0.01%, tartrate): 195% | ATP (%) M ([1]; 0.05%): 102% | HGF (%) M, relative excretion ([2]; 0.005%): 141% | KGF (%) M, relative excretion ([3]; 0.005%): 123%

O=C1c2c(O)cc(O)cc2OC(c2ccc(O)c(O)c2)C1O (stereo not shown) [Dihydroquercetin, 3,3′,4′,5,7-pentahydroxyflavanone]
ckit expression M (X-times expression) ([4]; 10 μM): 1.32 | ckit expression M (X-times expression) ([4]; 100 μM): 3.55 | ckit expression M (X-times expression) [4, 8]: induced | MCR1 expression M (X-times expression) ([5]; 10 μM): 2.56 | MCR1 expression M (X-times expression) ([5]; 10 μM, listed as dihydroquercetin): significantly differentially expressed | MCR1 expression M (X-times expression) ([5]; 100 μM): 5.17 | MCR1 expression M (X-times expression) [5, 8]: induced | gp100 expression M (X-times expression) ([6]; 10 μM): 0.89 | gp100 expression M (X-times expression) ([6]; 100 μM): 3.48 | gp100 expression M (X-times expression) [6, 8]: induced | Melanin content (%) M ([7]; 10 μM, d 4): 100% | Melanin content (%) M ([7]; 10 μM, d 7, untreated d 7 = 181): 254% | Melanin content (%) M ([7]; 100 μM, d 4): 100% | Melanin content (%) M ([7]; 100 μM, d 7, untreated d 7 = 181): 161%

C[N+](C)(C)CC(O)CC(=O)[O-] (stereo not shown) [Carnitine, 3-hydroxy-4-(trimethylammonium)butyric acid betaine]
ATP (%) M ([1]; 0.05%): 212% | ATP (%) M ([1]; 0.05%, listed as carnitine): increase the ATP content in the treated cultures significantly | ATP (%) M ([1]; 0.1%): 160% | ATP (%) M ([1]; 0.1%, listed as carnitine): increase the ATP content in the treated cultures significantly | HGF (%) M, relative excretion ([2]; 0.01%): 105% | KGF (%) M, relative excretion ([3]; 0.01%): 120%
